Data published in patent publication US3951995A, “Method for industrial production of N-substituted dipropylacetamides” (Laboratorios Made, S.A., priority 1973, dated 1976).

How the values were obtained:
[1] = Acute toxicity, lethal dose 50 (LD50), intraperitoneal; design: species or system albino rats I.C.R. Swiss; conditions: rat, in vivo, ip
From the text: The lethal dose 50 (LD50) has been determined on albino rats I.C.R. Swiss, of both sexes, weighing 24 ± 2 g.

[2] = tested on: hypnotic effect of the pentobarbital; experiment: Potentiation of barbiturates (sodium pentobarbital hypnotic effect); type: in vivo, albino rats I.C.R. Swiss; conditions: for Asleep after 180 minutes (number of animals) / Awake after 180 minutes (number of animals): 30 min before sodium pentobarbital 60 mg/kg i.p., of 20; for potentiation of the hypnotic effect of the pentobarbital (in words): sodium pentobarbital 60 mg/kg i.p., I 180, II 35, III 18, Diazepam 3,6 mg/kg
Method: Albino rats I.C.R. Swiss weighing 25 ± 2 g have been used.
Lot (1): Sodium pentobarbital 60 mg/kg + I (180 mg/kg).
Lot (2): Sodium pentobarbital 60 mg/kg + II (35 mg/kg).
Lot (3): Sodium pentobarbital 60 mg/kg + III (18 mg/kg).
Lot (5): Sodium pentobarbital 60 mg/kg + distilled H2 O (control lot).
The number of animals awake after 180 minutes after the administration of the barbiturate are noted. The following results have been obtained according to the statistic test of Chi^2 : […]

[3] = tested on: convulsions and lethal effect of cardiazol; experiment: Anti-convulsant activity against cardiazol; type: in vivo, albino rats I.C.R. Swiss; conditions: for number of animals with convulsions / number of dead animals: after 30 minutes cardiazol 1 mg/rat, 10 rats per lot
Method: There have been employed 4 lots of 10 rats per lot, which received:
Lot (1): I 180 mg/kg and after 30 minutes cardiazol 1 mg/rat.
Lot (2): II 35 mg/kg and after 30 minutes cardiazol 1 mg/rat.
Lot (3): III 18 mg/kg and after 30 minutes cardiazol 1 mg/rat.

[4] = II 35 mg/kg, cardiazol 1 mg/rat

Compound: CCCC(CCC)C(=O)NCc1cccnc1 [Compound II, N-(3-picolyl)-dipropylacetamide]
- LD50 [1]: 95 mg/kg
- Asleep after 180 minutes (number of animals) ([2]; II 35 mg/kg, control 1, p<0.001 (Chi^2)): 14
- Awake after 180 minutes (number of animals) ([2]; II 35 mg/kg, control 19, p<0.001 (Chi^2)): 6
- potentiation of the hypnotic effect of the pentobarbital (in words) [2]: potentiates clearly the hypnotic effect of the pentobarbital
- number of animals with convulsions ([3]; II 35 mg/kg, control 10): 0
- number of dead animals ([3]; II 35 mg/kg, control 10): 0
- protection of the convulsions [3, 4]: 100%
- protection of the lethal effect of the cardiazol [3, 4]: 100%

Compound: CCCC(CCC)C(=O)NCc1ccncc1 [Compound III, N-(4-picolyl) - dipropylacetamide]
- LD50 [1]: 264 mg/kg
- Asleep after 180 minutes (number of animals) ([2]; III 18 mg/kg, control 4, p<0.001 (Chi^2)): 19
- Awake after 180 minutes (number of animals) ([2]; III 18 mg/kg, control 16, p<0.001 (Chi^2)): 1
- potentiation of the hypnotic effect of the pentobarbital (in words) [2]: potentiates clearly the hypnotic effect of the pentobarbital
- number of dead animals ([3]; III 18 mg/kg, control 0): 0
- number of animals with convulsions ([3]; III 18 mg/kg, control 5): 1
- protection of the convulsion effect of cardiazol ([3]; III 18 mg/kg, cardiazol 1 mg/rat): 40%

Compound: CCCC(CCC)C(=O)NCc1ccccn1 [Compound I, N-(2-picolyl)-dipropylacetamide]
- LD50 [1]: > 1600 mg/kg
- Asleep after 180 minutes (number of animals) ([2]; I 180 mg/kg, control 1, p<0.001 (Chi^2)): 17
- Awake after 180 minutes (number of animals) ([2]; I 180 mg/kg, control 19, p<0.001 (Chi^2)): 3
- potentiation of the hypnotic effect of the pentobarbital (in words) [2]: potentiates clearly the hypnotic effect of the pentobarbital
- number of animals with convulsions ([3]; I 180 mg/kg, control 10): 9
- number of dead animals ([3]; I 180 mg/kg, control 10): 7
- protection of the lethal effect of the cardiazol ([3]; I 180 mg/kg, cardiazol 1 mg/rat): 30%

Compound: CN1C(=O)CN=C(c2ccccc2)c2cc(Cl)ccc21 [Diazepam, reference compound]
- Asleep after 180 minutes (number of animals) ([2]; Diazepam 3,6 mg/kg, control 4, p<0.02 (Chi^2)): 15
- Awake after 180 minutes (number of animals) ([2]; Diazepam 3,6 mg/kg, control 16, p<0.02 (Chi^2)): 5
- potentiation of the hypnotic effect of the pentobarbital (in words) [2]: potentiates clearly the hypnotic effect of pentobarbital, but not as much as the three compounds according to this invention
- anti-convulsant / anti-epileptic activity (in words) ([3]; general statement): Results have been positive with cardiazol
